Experiments:
[1] = target: T1, human adrenergic-α2A receptor (Homo sapiens, UniProt P08913); experiment: Radioligand binding experiment for α2A-adrenoceptor ([3H]-raulwolscine competition, CHO cell membranes); conditions: [3H]raulwolscine 1 nM, membranes of CHO cells transfected with human α2A receptor; read-out: pIC50 α2A (converted)
T1 construct: expressed in transfected cells; membrane preparation
T1 sequence (P08913 1-465): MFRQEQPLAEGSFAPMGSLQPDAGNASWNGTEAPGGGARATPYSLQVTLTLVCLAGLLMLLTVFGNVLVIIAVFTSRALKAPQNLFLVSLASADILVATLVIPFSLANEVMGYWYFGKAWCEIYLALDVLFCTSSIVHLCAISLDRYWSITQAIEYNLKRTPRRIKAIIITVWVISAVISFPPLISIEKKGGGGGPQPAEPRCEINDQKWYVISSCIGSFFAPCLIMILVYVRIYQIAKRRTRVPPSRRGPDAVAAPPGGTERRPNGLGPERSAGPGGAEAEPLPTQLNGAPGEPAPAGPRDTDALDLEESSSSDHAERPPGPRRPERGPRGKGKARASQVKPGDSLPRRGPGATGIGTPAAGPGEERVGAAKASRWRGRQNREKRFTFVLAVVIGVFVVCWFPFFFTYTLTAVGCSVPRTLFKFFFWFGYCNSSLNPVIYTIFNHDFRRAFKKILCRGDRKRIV
Method: (§1) The interaction of the compounds of Formula (I) with α2C-adrenoceptor receptors was assessed in in vitro radioligand binding experiments. In general, a low concentration of a radioligand with a high binding affinity for a particular receptor or transporter is incubated with a sample of a tissue preparation enriched in a particular receptor or transporter or with a preparation of cells expressing cloned human receptors in a buffered medium. During the incubation, the radioligand binds to the receptor or transporter. When equilibrium of binding is reached, the receptor bound radioactivity is separated from the non-bound radioactivity, and the receptor- or transporter-bound activity is counted. The interaction of the test compounds with the receptor is assessed in competition binding experiments. Various concentrations of the test compound are added to the incubation mixture containing the receptor- or transporter preparation and the radioligand. The test compound in proportion to its binding affinity and its concentration inhibits binding of the radioligand. The radioligand used for […] receptor binding was [^3H]-raulwolscine.
(§2) CHO cells, stabile transfected with human adrenergic-α2A-, -α2B or α2C receptor cDNA, were cultured in Dulbecco's Modified Eagle's Medium (DMEM)/Nutrient mixture Ham's F12 (ratio 1:1)(Gibco, Gent-Belgium) supplemented with 10% heat inactivated fetal calf serum (Life Technologies, Merelbeke-Belgium) and antibiotics (100 IU/ml penicillin G, 100 μg/ml streptomycin sulphate, 110 μg/ml pyruvic acid and 100 μg/ml L-glutamine). One day before collection, cells were induced with 5 mM sodiumbutyrate. Upon 80-90% of confluence, cells were scraped in phosphate buffered saline without Ca^2+ and Mg^2+ and collected by centrifugation at 1500×g for 10 min. The cells were homogenised in Tris-HCl 50 mM using an Ultraturrax homogenizer and centrifuged for 10 min at 23,500×g. The pellet was washed once by resuspension and rehomogenization and the final pellet was resuspended in Tris-HCl, divided in 1 ml aliquots and stored at −70° C.
(§3) Membranes were thawed and re-homogenized in incubation buffer (glycylglycine 25 mM, pH 8.0). In a total volume of 500 μl, 2-10 μg protein was incubated with [^3H]raulwolscine (NET-722) (New England Nuclear, USA) (1 nM final concentration) with or without competitor for 60 min at 25° C. followed by rapid filtration over GF/B filter using a Filtermate196 harvester (Packard, Meriden, Conn.). Filters were rinsed extensively with ice-cold rinsing buffer (Tris-HCl 50 mM pH 7.4). Filter-bound radioactivity was determined by scintillation counting in a Topcount (Packard, Meriden, CT) and results were expressed as counts per minute (cpm). Non-specific binding was determined in the presence of 1 μM oxymetazoline for hα2A- and hα2B receptors and 1 μM spiroxatrine for hα2C receptors.
(§4) Data from assays in the presence of compound were calculated as a percentage of total binding measured in the absence of test compound. Inhibition curves, plotting percent of total binding versus the log value of the concentration of the test compound, were automatically generated, and sigmoidal inhibition curves were fitted using non-linear regression. The pIC50 values of test compounds were derived from individual curves.

[2] = target: T2, human adrenergic-α2B receptor (Homo sapiens, UniProt P18089); experiment: Radioligand binding experiment for α2B-adrenoceptor ([3H]-raulwolscine competition, CHO cell membranes); conditions: [3H]raulwolscine 1 nM, membranes of CHO cells transfected with human α2B receptor; for IC50: read-out: pIC50 α2B (converted)
T2 construct: expressed in transfected cells; membrane preparation
T2 sequence (P18089 1-450): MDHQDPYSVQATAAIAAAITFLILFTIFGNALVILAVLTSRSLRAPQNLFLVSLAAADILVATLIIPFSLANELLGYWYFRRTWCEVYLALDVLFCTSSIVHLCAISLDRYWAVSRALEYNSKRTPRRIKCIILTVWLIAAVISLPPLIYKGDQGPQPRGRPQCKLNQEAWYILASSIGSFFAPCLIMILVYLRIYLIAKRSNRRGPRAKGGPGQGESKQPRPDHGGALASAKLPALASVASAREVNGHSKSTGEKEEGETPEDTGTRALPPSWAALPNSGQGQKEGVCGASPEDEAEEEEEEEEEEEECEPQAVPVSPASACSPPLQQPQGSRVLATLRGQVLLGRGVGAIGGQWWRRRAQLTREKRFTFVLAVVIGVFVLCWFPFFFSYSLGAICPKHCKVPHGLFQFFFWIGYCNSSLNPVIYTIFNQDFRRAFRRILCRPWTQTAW
Method: as §1, §2, §3, §4

[3] = target: T3, human adrenergic-α2C receptor (Homo sapiens, UniProt P18825); experiment: Radioligand binding experiment for α2C-adrenoceptor ([3H]-raulwolscine competition, CHO cell membranes); conditions: [3H]raulwolscine 1 nM, membranes of CHO cells transfected with human α2C receptor; read-out: pIC50 α2C (converted)
T3 construct: expressed in transfected cells; membrane preparation
T3 sequence (P18825 1-462): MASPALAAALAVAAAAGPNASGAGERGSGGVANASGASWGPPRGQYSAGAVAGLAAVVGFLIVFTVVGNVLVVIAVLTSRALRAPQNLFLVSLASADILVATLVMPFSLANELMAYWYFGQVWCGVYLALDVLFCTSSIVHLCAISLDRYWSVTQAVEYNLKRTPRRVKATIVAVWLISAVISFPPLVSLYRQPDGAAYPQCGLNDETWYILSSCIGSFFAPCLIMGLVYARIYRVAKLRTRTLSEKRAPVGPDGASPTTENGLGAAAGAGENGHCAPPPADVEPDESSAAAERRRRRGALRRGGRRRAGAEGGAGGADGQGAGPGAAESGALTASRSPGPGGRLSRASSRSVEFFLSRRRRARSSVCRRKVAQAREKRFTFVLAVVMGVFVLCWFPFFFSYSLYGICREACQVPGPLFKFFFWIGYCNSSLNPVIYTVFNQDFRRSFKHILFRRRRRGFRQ
Method: as §1, §2, §3, §4

Row | Compound | IC50 [1] [nM] | IC50 [2] [nM] | IC50 [3] [nM] | pIC50 α2B [2]
1 | O=c1n(-c2ccc(NCCN3CCOCC3)cc2)cnn1CC1CCN(CCOc2ccccc2)CC1 [compound 50] | 251 | 15.8 | 12.6 | 
2 | CN1CCN(c2ccc(-n3cnn(CC4CCN(CCOc5ccccc5)CC4)c3=O)cc2)CC1 [compound 51] | 158 | 7.94 | 7.94 | 
3 | CC(C)N1CCN(c2ccc(-n3cnn(CC4CCN(CCOc5ccccc5)CC4)c3=O)cc2)CC1 [compound 53] | 100 | 3.98 | 5.01 | 
4 | O=c1n(-c2ccc(N3CCN(Cc4ccccc4)CC3)cc2)cnn1CC1CCN(CCOc2ccccc2)CC1 [compound 54] | 158 | 31.6 | 15.8 | 
5 | COc1ccccc1C1CCN(C(C)C(C)n2ncn(-c3ccc(N4CCN(c5ccc(O)cc5)CC4)cc3)c2=O)C1 (stereo not drawn) [compound 55] | 1260 | 50.1 | 15.8 | 
6 | CN1CCCN(c2ccc(-n3cnn(CC4CCN(CCOc5ccccc5)CC4)c3=O)cc2)CC1 [compound 60] | 39.8 | 5.01 | 2 | 
7 | CN1CCCN(Cc2ccc(-n3cnn(CC4CCN(CCOc5ccccc5)CC4)c3=O)cc2)CC1 [compound 61] | 63.1 | 10 | 1.26 | 
8 | O=c1n(-c2ccc(CN3CCCC3)cc2)cnn1CC1CCN(CCOc2ccccc2)CC1 [compound 62] | 39.8 | 10 | 0.501 | 
9 | O=c1n(-c2ccc(N3CCCCC3)cc2)cnn1CC1CCN(CCOc2ccccc2)CC1 [compound 63] | 158 | 31.6 | 5.01 | 
10 | O=c1n(-c2ccc(CN3CCCCC3)cc2)cnn1CC1CCN(CCOc2ccccc2)CC1 [compound 64] | 50.1 | 12.6 | 0.631 | 
11 | O=c1n(-c2ccc(CN3CCC(O)CC3)cc2)cnn1CC1CCN(CCOc2ccccc2)CC1 [compound 65] | 79.4 | 20 | 1.26 | 
12 | O=c1n(CC2CCN(CCOc3ccccc3)CC2)cnn1CCN1CCCCC1 [compound 66] | 39.8 | 50.1 | 2.51 | 
13 | O=c1n(CC2CCN(CCOc3ccccc3)CC2)cnn1CCN1CCOCC1 [compound 67] | 398 | 100 | 25.1 | 
14 | O=c1n(-c2ccc(CN3CCC(N4CCCC4)CC3)cc2)cnn1CC1CCN(CCOc2ccccc2)CC1 [compound 68] | 39.8 | 7.94 | 2.51 | 
15 | O=c1n(CCN2CCOCC2)cnn1CC1CCN(CCOc2ccccc2)CC1 [compound 71] | 251 | 251 | 20 | 
16 | O=c1n(-c2ccc(N3CCOCC3)cc2)cnn1CC1CCN(CCOc2ccccc2)CC1 [compound 72] | 158 | 25.1 | 7.94 | 

Row | Compound | IC50 [1] [nM] | IC50 [2] [nM] | IC50 [3] [nM] | pIC50 α2B [2]
17 | O=c1n(-c2ccc(CN3CCOCC3)cc2)cnn1CC1CCN(CCOc2ccccc2)CC1 [compound 73] | 158 | 39.8 | 1.58 | 
18 | C/C(=C\c1ccccc1)CN1CCC(n2cnn(CCN3CCCCC3)c2=O)CC1 [compound 79] | 398 | 631 | 31.6 | 
19 | O=C1c2ccccc2C(=O)N1CCCn1ncn(CC2CCN(CCOc3ccccc3)CC2)c1=O [compound 82] | 12.6 | 15.8 | 1 | 
20 | C/C(=C\c1ccccc1)CN1CCC(n2cnn(CCCN3C(=O)c4ccccc4C3=O)c2=O)CC1 [compound 83] | 316 | 50.1 | 5.01 | 
21 | O=C1c2ccccc2C(=O)N1CCCn1cnn(CC2CCN(CCOc3ccccc3)CC2)c1=O [compound 84] | 25.1 | 20 | 0.631 | 
22 | NCc1ccc(Cn2cnn(CCNCCOc3ccccc3)c2=O)cc1 [compound 85] | 126 | 126 | 6.31 | 
23 | CN(C)CCNc1ccc(-n2cnn(CCNCCOc3ccccc3)c2=O)cc1 [compound 86] | 39.8 | 31.6 | 1 | 
24 | CN(C)CCNc1ccc(-n2cnn(CCNCCOc3ccccc3)c2=O)cc1 [compound 87] | 31.6 |  | 1.26 | 7.5
25 | O=c1n(-c2ccc(NCCN3CCCC3)cc2)cnn1CCNCCOc1ccccc1 [compound 88] | 39.8 | 39.8 | 2 | 
26 | O=c1n(-c2ccc(NCc3ccc(F)cc3)cc2)cnn1CCNCCOc1ccccc1 [compound 89] | 251 | 126 | 2 | 
27 | O=c1n(-c2ccc(CNCCc3ccccc3)cc2)cnn1CCNCCOc1ccccc1 [compound 90] | 20 | 50.1 | 0.631 | 
28 | O=c1n(-c2ccc(CNCc3ccc(F)cc3)cc2)cnn1CCNCCOc1ccccc1 [compound 91] | 31.6 | 79.4 | 5.01 | 
29 | O=c1n(-c2ccc(CNCc3ccccc3)cc2)cnn1CCNCCOc1ccccc1 [compound 92] | 25.1 | 200 | 5.01 | 
30 | O=c1n(-c2ccc(CNCC3CCCO3)cc2)cnn1CCNCCOc1ccccc1 (stereo not drawn) [compound 93] | 50.1 | 126 | 1.26 | 
31 | CN(Cc1ccccc1)Cc1ccc(-n2cnn(CCNCCOc3ccccc3)c2=O)cc1 [compound 94] | 31.6 | 126 | 3.16 | 
32 | O=c1n(-c2ccc(CNCCN3CCCCC3)cc2)cnn1CCNCCOc1ccccc1 [compound 95] | 15.8 | 126 | 1.58 | 

— US20100029620A1, “SUBSTITUTED TRIAZOLINE, TETRAZOLONE AND IMIDAZOLONE DERIVATIVES FOR USE AS A MEDICINE” (JANSSEN PHARMACEUTICA N.V., priority 2004, published 2010)
